Data as given in patent US9439432B2, “Phenylisoxazoline-based compound having herbicidal activity and use thereof” (MOGHU RESEARCH CENTER LTD, priority 2011, dated 2016).

Experiments:
Type in all cases: in vivo
Corn [1] = assay: Pre-emergence treatment, phytotoxicity to corn; settings: 500 g/ha, 4 weeks after spraying, scale 0 to 10 (0: no effects, 10: complete death)
Experimental: (§1) A rectangular plastic pot having a surface area of 300 cm^2 was filled with sandy loam soil and mixed bed soil which were mixed at a ratio of 1:1, and then, barnyardrass (Echinochloa crusgalli), large crabgrass (Digitaria sanguinalis), blackgrass (Alopecurus myosuroides), and annual bluegrass (Poa annua), which are grass weeds, were seeded thereto. In a pot that was prepared as described above, seeds of corn, soybean, cotton, wheat, and rice were seeded. The pots were irrigated, and one day after, chemicals were sprayed thereto. The spraying was performed by using a track sprayer (R&D Sprayer, USA) equipped with a Teejet 8002 (Spraying Systems Co., USA) nozzle, and a spraying amount was adjusted at 300 L/ha. A spraying solution was prepared by dissolving test materials or references in acetone and adding the same amount of 0.2%(v/v) tween 20 aqueous solution thereto. Application rates were 500, 250, 125, and 62.5 g/ha. The pots were placed in a greenhouse in which during day, the temperature was maintained at a temperature of 25 to 30° C., and during night, the temperature was maintained at a temperature of 15 to 25° C., and the pots were periodically irrigated. Four weeks after the spraying the test materials or References, effects and phytotoxicity of the respective weeds and crops were evaluated in a scale of 0 to 10 (0: no effects, 10: complete death), and results thereof are shown in Table 4 below.

Soybean [2] = assay: Pre-emergence treatment, phytotoxicity to soybean; settings: 500 g/ha, 4 weeks after spraying, scale 0 to 10 (0: no effects, 10: complete death)
Experimental: as §1

Cotton [3] = assay: Pre-emergence treatment, phytotoxicity to cotton; settings: 500 g/ha, 4 weeks after spraying, scale 0 to 10 (0: no effects, 10: complete death)
Experimental: as §1

Wheat [4] = assay: Pre-emergence treatment, phytotoxicity to wheat; settings: 500 g/ha, 4 weeks after spraying, scale 0 to 10 (0: no effects, 10: complete death)
Experimental: as §1

Rice [5] = assay: Pre-emergence treatment, phytotoxicity to rice; settings: 500 g/ha, 4 weeks after spraying, scale 0 to 10 (0: no effects, 10: complete death)
Experimental: as §1

Echinochloa crusgalli [6] = assay: Pre-emergence treatment, herbicidal efficacy on barnyardgrass; settings: 4 weeks after spraying
Experimental: as §1

Digitaria sanguinalis [7] = assay: Pre-emergence treatment, herbicidal efficacy on large crabgrass; settings: 4 weeks after spraying, scale 0 to 10
Experimental: as §1

Poa annua [8] = assay: Pre-emergence treatment, herbicidal efficacy on annual bluegrass; settings: 4 weeks after spraying, scale 0 to 10
Experimental: as §1

Alopecurus myosuroides [9] = assay: Pre-emergence treatment, herbicidal efficacy on blackgrass; settings: 4 weeks after spraying, scale 0 to 10
Experimental: as §1

Corn [10] = assay: Post-emergence treatment, phytotoxicity to corn; settings: post-emergence (about 3 leaf stage), 1,000 g/ha, 4 weeks after spraying, scale 0 to 10 (0: no effects, 10: complete death)
Experimental: as §1
(§2) Pots containing crops and weeds were prepared in the same manner as in Example 7, and then, in the second week in which crops and weeds entered into about 3 leaf stage, the test materials and the references were sprayed thereto in the same manner as described above. The rates were 1,000, 500, 250, and 125 g/ha. Four weeks after the spraying of the test materials or the references, herbicidal efficacy and phytotoxicity to the respective weeds and crops were evaluated in a scale of 0 to 10 (0: no effects, 10: complete death).

Soybean [11] = assay: Post-emergence treatment, phytotoxicity to soybean; settings: post-emergence (about 3 leaf stage), 1,000 g/ha, 4 weeks after spraying, scale 0 to 10 (0: no effects, 10: complete death)
Experimental: as §1, §2

Cotton [12] = assay: Post-emergence treatment, phytotoxicity to cotton; settings: post-emergence (about 3 leaf stage), 1,000 g/ha, 4 weeks after spraying, scale 0 to 10 (0: no effects, 10: complete death)
Experimental: as §1, §2

Wheat [13] = assay: Post-emergence treatment, phytotoxicity to wheat; settings: post-emergence (about 3 leaf stage), 1,000 g/ha, 4 weeks after spraying, scale 0 to 10 (0: no effects, 10: complete death)
Experimental: as §1, §2

Rice [14] = assay: Post-emergence treatment, phytotoxicity to rice; settings: post-emergence (about 3 leaf stage), 1,000 g/ha, 4 weeks after spraying, scale 0 to 10 (0: no effects, 10: complete death)
Experimental: as §1, §2

Echinochloa crusgalli [15] = assay: Post-emergence treatment, herbicidal efficacy on barnyardgrass; settings: 4 weeks after spraying, scale 0 to 10
Experimental: as §1, §2

Digitaria sanguinalis [16] = assay: Post-emergence treatment, herbicidal efficacy on large crabgrass; settings: 4 weeks after spraying, scale 0 to 10
Experimental: as §1, §2

Poa annua [17] = assay: Post-emergence treatment, herbicidal efficacy on annual bluegrass; settings: 4 weeks after spraying, scale 0 to 10
Experimental: as §1, §2

Alopecurus myosuroides [18] = assay: Post-emergence treatment, herbicidal efficacy on blackgrass; settings: 4 weeks after spraying, scale 0 to 10
Experimental: as §1, §2

[19] = 500 g/ha, scale 0 to 10 (0: no effects, 10: complete death)

## CC1(COCc2c(F)cccc2Cl)CC(c2ccccc2Cl)=NO1 (stereo not drawn) [Reference B]
Corn [1]
  Phytotoxicity, Corn: 0
Soybean [2]
  Phytotoxicity, Soybean: 0
Cotton [3]
  Phytotoxicity, Cotton: 0
Wheat [4]
  Phytotoxicity, Wheat: 0
Rice [5]
  Phytotoxicity, Rice: 0
Echinochloa crusgalli [6]; 62.5 g/ha, scale 0 to 10
  Herbicidal efficacy, Echinochloa crusgalli: 2
Echinochloa crusgalli [6]; 125 g/ha, scale 0 to 10
  Herbicidal efficacy, Echinochloa crusgalli: 5
Echinochloa crusgalli [6]; 250 g/ha, scale 0 to 10
  Herbicidal efficacy, Echinochloa crusgalli: 7
Echinochloa crusgalli [6]; [19]
  Herbicidal efficacy, Echinochloa crusgalli: 10
Digitaria sanguinalis [7]; 62.5 g/ha
  Herbicidal efficacy, Digitaria sanguinalis: 0
Digitaria sanguinalis [7]; 125 g/ha
  Herbicidal efficacy, Digitaria sanguinalis: 4
Digitaria sanguinalis [7]; 250 g/ha
  Herbicidal efficacy, Digitaria sanguinalis: 8
Digitaria sanguinalis [7]; 500 g/ha
  Herbicidal efficacy, Digitaria sanguinalis: 9
Poa annua [8]; 62.5 g/ha
  Herbicidal efficacy, Poa annua: 2
Poa annua [8]; 125 g/ha
  Herbicidal efficacy, Poa annua: 4
Poa annua [8]; 250 g/ha
  Herbicidal efficacy, Poa annua: 8
Poa annua [8]; 500 g/ha
  Herbicidal efficacy, Poa annua: 10
Alopecurus myosuroides [9]; 62.5 g/ha
  Herbicidal efficacy, Alopecurus myosuroides: 0
Alopecurus myosuroides [9]; 125 g/ha
  Herbicidal efficacy, Alopecurus myosuroides: 0
Alopecurus myosuroides [9]; 250 g/ha
  Herbicidal efficacy, Alopecurus myosuroides: 3
Alopecurus myosuroides [9]; 500 g/ha
  Herbicidal efficacy, Alopecurus myosuroides: 10
Corn [10]
  Phytotoxicity, Corn: 0
Soybean [11]
  Phytotoxicity, Soybean: 2
Cotton [12]
  Phytotoxicity, Cotton: 0
Wheat [13]
  Phytotoxicity, Wheat: 0
Rice [14]
  Phytotoxicity, Rice: 0
Echinochloa crusgalli [15]; post-emergence, 125 g/ha
  Herbicidal efficacy, Echinochloa crusgalli: 0
Echinochloa crusgalli [15]; post-emergence, 250 g/ha
  Herbicidal efficacy, Echinochloa crusgalli: 0
Echinochloa crusgalli [15]; post-emergence, 500 g/ha
  Herbicidal efficacy, Echinochloa crusgalli: 1
Echinochloa crusgalli [15]; post-emergence, 1,000 g/ha
  Herbicidal efficacy, Echinochloa crusgalli: 7
Digitaria sanguinalis [16]; post-emergence, 125 g/ha
  Herbicidal efficacy, Digitaria sanguinalis: 0
Digitaria sanguinalis [16]; post-emergence, 250 g/ha
  Herbicidal efficacy, Digitaria sanguinalis: 5
Digitaria sanguinalis [16]; post-emergence, 500 g/ha
  Herbicidal efficacy, Digitaria sanguinalis: 6
Digitaria sanguinalis [16]; post-emergence, 1,000 g/ha
  Herbicidal efficacy, Digitaria sanguinalis: 8
Poa annua [17]; post-emergence, 125 g/ha
  Herbicidal efficacy, Poa annua: 0
Poa annua [17]; post-emergence, 250 g/ha
  Herbicidal efficacy, Poa annua: 1
Poa annua [17]; post-emergence, 500 g/ha
  Herbicidal efficacy, Poa annua: 4
Poa annua [17]; post-emergence, 1,000 g/ha
  Herbicidal efficacy, Poa annua: 6
Alopecurus myosuroides [18]; post-emergence, 125 g/ha
  Herbicidal efficacy, Alopecurus myosuroides: 0
Alopecurus myosuroides [18]; post-emergence, 250 g/ha
  Herbicidal efficacy, Alopecurus myosuroides: 0
Alopecurus myosuroides [18]; post-emergence, 500 g/ha
  Herbicidal efficacy, Alopecurus myosuroides: 0
Alopecurus myosuroides [18]; post-emergence, 1,000 g/ha
  Herbicidal efficacy, Alopecurus myosuroides: 3

## Cc1ccccc1C1=NOC(C)(COCc2ccccc2)C1 (stereo not drawn) [Reference C]
Corn [1]
  Phytotoxicity, Corn: 1
Soybean [2]
  Phytotoxicity, Soybean: 1
Cotton [3]
  Phytotoxicity, Cotton: 1
Wheat [4]
  Phytotoxicity, Wheat: 0
Rice [5]
  Phytotoxicity, Rice: 0
Echinochloa crusgalli [6]; 62.5 g/ha, scale 0 to 10
  Herbicidal efficacy, Echinochloa crusgalli: 2
Echinochloa crusgalli [6]; 125 g/ha, scale 0 to 10
  Herbicidal efficacy, Echinochloa crusgalli: 5
Echinochloa crusgalli [6]; 250 g/ha, scale 0 to 10
  Herbicidal efficacy, Echinochloa crusgalli: 8
Echinochloa crusgalli [6]; [19]
  Herbicidal efficacy, Echinochloa crusgalli: 10
Digitaria sanguinalis [7]; 62.5 g/ha
  Herbicidal efficacy, Digitaria sanguinalis: 0
Digitaria sanguinalis [7]; 125 g/ha
  Herbicidal efficacy, Digitaria sanguinalis: 6
Digitaria sanguinalis [7]; 250 g/ha
  Herbicidal efficacy, Digitaria sanguinalis: 9
Digitaria sanguinalis [7]; 500 g/ha
  Herbicidal efficacy, Digitaria sanguinalis: 10
Poa annua [8]; 62.5 g/ha
  Herbicidal efficacy, Poa annua: 2
Poa annua [8]; 125 g/ha
  Herbicidal efficacy, Poa annua: 5
Poa annua [8]; 250 g/ha
  Herbicidal efficacy, Poa annua: 9
Poa annua [8]; 500 g/ha
  Herbicidal efficacy, Poa annua: 9
Alopecurus myosuroides [9]; 62.5 g/ha
  Herbicidal efficacy, Alopecurus myosuroides: 0
Alopecurus myosuroides [9]; 125 g/ha
  Herbicidal efficacy, Alopecurus myosuroides: 2
Alopecurus myosuroides [9]; 250 g/ha
  Herbicidal efficacy, Alopecurus myosuroides: 4
Alopecurus myosuroides [9]; 500 g/ha
  Herbicidal efficacy, Alopecurus myosuroides: 6
Corn [10]
  Phytotoxicity, Corn: 2
Soybean [11]
  Phytotoxicity, Soybean: 0
Cotton [12]
  Phytotoxicity, Cotton: 0
Wheat [13]
  Phytotoxicity, Wheat: 0
Rice [14]
  Phytotoxicity, Rice: 0
Echinochloa crusgalli [15]; post-emergence, 125 g/ha
  Herbicidal efficacy, Echinochloa crusgalli: 1
Echinochloa crusgalli [15]; post-emergence, 250 g/ha
  Herbicidal efficacy, Echinochloa crusgalli: 3
Echinochloa crusgalli [15]; post-emergence, 500 g/ha
  Herbicidal efficacy, Echinochloa crusgalli: 4
Echinochloa crusgalli [15]; post-emergence, 1,000 g/ha
  Herbicidal efficacy, Echinochloa crusgalli: 7
Digitaria sanguinalis [16]; post-emergence, 125 g/ha
  Herbicidal efficacy, Digitaria sanguinalis: 1
Digitaria sanguinalis [16]; post-emergence, 250 g/ha
  Herbicidal efficacy, Digitaria sanguinalis: 3
Digitaria sanguinalis [16]; post-emergence, 500 g/ha
  Herbicidal efficacy, Digitaria sanguinalis: 4
Digitaria sanguinalis [16]; post-emergence, 1,000 g/ha
  Herbicidal efficacy, Digitaria sanguinalis: 7
Poa annua [17]; post-emergence, 125 g/ha
  Herbicidal efficacy, Poa annua: 0
Poa annua [17]; post-emergence, 250 g/ha
  Herbicidal efficacy, Poa annua: 2
Poa annua [17]; post-emergence, 500 g/ha
  Herbicidal efficacy, Poa annua: 3
Poa annua [17]; post-emergence, 1,000 g/ha
  Herbicidal efficacy, Poa annua: 4
Alopecurus myosuroides [18]; post-emergence, 125 g/ha
  Herbicidal efficacy, Alopecurus myosuroides: 0
Alopecurus myosuroides [18]; post-emergence, 250 g/ha
  Herbicidal efficacy, Alopecurus myosuroides: 0
Alopecurus myosuroides [18]; post-emergence, 500 g/ha
  Herbicidal efficacy, Alopecurus myosuroides: 3
Alopecurus myosuroides [18]; post-emergence, 1,000 g/ha
  Herbicidal efficacy, Alopecurus myosuroides: 5
